The test system of data set [1] is bovine viral diarrhea virus (BVDV). Description: Column sanitization after viral clearance run, BVDV. The following applies: column treated with 7.2 M guanidine hydrochloride, pH 3.0, after a viral clearance run. In kind it is cell-based. As to the method: Solutions tested included a variety of alcohols, detergents, and chaotropic agents including guanidine hydrochloride (Table 2). […] A series of experiments were performed to identify conditions under which 8 M guanidine hydrochloride would stay in solution. […] Additionally, when mixed with virus (1 part virus:9 parts acidic guanidine hydrochloride; final guanidine hydrochloride concentration=7.2 M) inactivation to the limit of detection occurred within 30 minutes at 4° C. Similar experiments were carried out treating the benzamidine-SEPHAROSE column with 7.2 M guanidine hydrochloride, pH 3.0, following a viral clearance evaluation run.

The subject of another data set is porcine parvovirus (PPV). Description: Inactivation of PPV in solution by test solutions (TCID50 titration). In kind it is cell-based.
Another data set deals with PrP^Sc. The following applies: pH 3.
The next data set relates to porcine parvovirus; PPV. Put plainly: Porcine parvovirus clearance and sanitization across the benzamidine-SEPHAROSE column (TCID50 titration on MPK cells). It is filed as cell-based.

Counter-ions that a name gives are not always drawn. Bounds are passed on as bounds.

Consider `N=C(N)N` [guanidine hydrochloride], for which the precipitation entry (8 M guanidine acidified to pH 4.0 or 3.0, 4° C.) is given as “did not precipitate”. The “precipitation at the lower temperature” value (8 M guanidine, not acidified, 4° C.) was “precipitation occurred”. Moreover, the “virus inactivation on the benzamidine-SEPHAROSE column” value in data set [1] is on record as “inactivation to the limit of assay detection”; in the data set on porcine parvovirus; PPV (PPV, column treated with 7.2 M guanidine hydrochloride, pH 3.0, after a viral clearance run) it was “inactivation to the limit of assay detection”. In addition, the “time to inactivation to the limit of detection” value in the data set on porcine parvovirus (PPV) (1 part virus:9 parts acidic guanidine hydrochloride, final concentration 7.2 M, 4° C.) is not above 30 min. In addition, the “inactivation of virus in solution” value is recorded as “effective viral inactivation” in the data set on porcine parvovirus (PPV) (4 M guanidine hydrochloride, pH 3.0) and “inactivation of virus” in the data set on porcine parvovirus (PPV) (6.5 M guanidine hydrochloride, pH 4.0, 4° C.). Besides, the “killing of virus (PPV)” value in the data set on porcine parvovirus (PPV) (8 M guanidine hydrochloride, room temperature, initial screen) is “effective at killing virus to the detection limit of the assay”. For the same molecule, the “decrease in PrP^RES immunoreactivity, as compared to the non-treated control” value with PrP^Sc was not below 2.5 log. The “inactivation of chromatographic column-associated virus (benzamidine-SEPHAROSE resin)” value with porcine parvovirus; PPV (7.2 M guanidine hydrochloride, pH 3.0) was “can be inactivated”.

The values are drawn from US6913695B2, “Sanitization of chromatographic media” (Bayer HealthCare LLC, priority 2003, dated 2005).
